In patent US20230200390A1, “SELECTIVE HERBICIDES BASED ON SUBSTITUTED ISOXAZOLIN CARBOXAMIDES AND MEFENPYR-DIETHYL” (BAYER AKTIENGESELLSCHAFT, priority 2020, published 2023):

Key:
Type in all cases: in vivo
[1] = tested on: spring wheat, TRZAS Triso; assay: Treatment 1 day before: safener applied one day before herbicide, crop damage; conditions: 21 DAT
Description: (§1) Seeds of crops (spring wheat, TRZAS; spring barley, HORVS; maize, ZEAMA) were placed in sandy loam soil in pots of a diameter of 7-8 cm, covered with soil, and cultivated in a greenhouse under good growth conditions until plants were at the 1-3 leaf stage (BBCH 11-13). For split safener and herbicide treatment, first the safener was applied followed by the herbicide treatment on the following day. The safener and herbicides were formulated as WP and sprayed onto the green parts of the plants as an aqueous suspension at an equivalent water application rate of 300 l/ha, with addition of wetting agent and adjuvants (e.g. Mero, 1.5 l/ha; ammonium sulphate, 2 kg/ha). An equivalent set of plants was treated with the herbicides but without the prior safener treatment.
(§2) After application, the test plants were kept in the greenhouse under good growth conditions. 10 and 21 days after treatment (DAT) with the herbicide, % crop damage observed on the treated plants was scored visually in comparison to control plants that had not received any safener or herbicide treatment.

[2] = tested on: spring barley, HORVS Montoya; assay: as above
Description: as §1, §2

[3] = tested on: spring wheat, TRZAS Triso; assay: Tank-mix; post-emergence: crop damage by herbicide with/without safener mefenpyr-diethyl
Summary of the method: (§3)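 Greenhouse-grown spring wheat and barley treated post-emergence at 1–3-leaf stage with herbicide alone or tank-mixed with safener, sprayed at various dosages in 300 l/ha water. Crop injury scored visually 1–3 weeks after treatment as % vs untreated (0 none, 100 complete kill).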

[4] = tested on: spring barley, HORVS Montoya; assay: as above
Summary of the method: as §3

[5] = tested on: spring wheat, TRZAS Triso; assay: Seed treatment with safener; post-emergence herbicide, crop damage; conditions: for HER effect + SAF [%] (crop damage) / Reduction [%] / Reduction [Difference]: mefenpyr-diethyl 0.5 g a.i./kg seed; for HER effect [%] (crop damage, herbicide without safener): no safener
Summary of the method: (§4)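 Wheat and barley seeds were coated with safener (g a.i./kg seed) in a slurry prediluted with milk, then sown and grown to BBCH 12. WP herbicides with 1 l/ha MERO in 300 l/ha water were sprayed post-emergence, with untreated-seed plants as reference. Crop damage (%) was scored visually at 10 and 21 DAT.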

[6] = tested on: spring barley, HORVS Montoya; assay: as above; conditions: for HER effect + SAF / Reduction [%] / Reduction [Difference]: mefenpyr-diethyl 0.5 g a.i./kg seed
Summary of the method: as §4

[7] = HER 100 g a.i./ha, mefenpyr-diethyl 100 g a.i./ha 1 day before
[8] = HER 200 g a.i./ha, mefenpyr-diethyl 100 g a.i./ha 1 day before
[9] = HER 100 g a.i./ha, mefenpyr-diethyl 100 g a.i./ha 1 day before, 10 DAT
[10] = HER 1.5 g a.i./ha + mefenpyr-diethyl 50 g a.i./ha, 21 DAT
[11] = HER 6 g a.i./ha + mefenpyr-diethyl 50 g a.i./ha, 21 DAT
[12] = HER 24 g a.i./ha + mefenpyr-diethyl 100 g a.i./ha, 21 DAT
[13] = HER 2 g a.i./ha + mefenpyr-diethyl 50 g a.i./ha, 10 DAT
[14] = HER 8 g a.i./ha + mefenpyr-diethyl 50 g a.i./ha, 10 DAT
[15] = HER 32 g a.i./ha + mefenpyr-diethyl 100 g a.i./ha, 10 DAT
[16] = herbicide alone 8 g a.i./ha, 10 DAT
[17] = herbicide alone 32 g a.i./ha, 10 DAT
[18] = HER 2 g a.i./ha post-emergence, 10 DAT
[19] = HER 8 g a.i./ha post-emergence, 10 DAT
[20] = HER 32 g a.i./ha post-emergence, 10 DAT
[21] = HER 8 g a.i./ha + mefenpyr-diethyl 50 g a.i./ha, 21 DAT
[22] = HER 32 g a.i./ha + mefenpyr-diethyl 100 g a.i./ha, 21 DAT
[23] = herbicide alone 8 g a.i./ha, 21 DAT
[24] = herbicide alone 32 g a.i./ha, 21 DAT
[25] = HER 8 g a.i./ha post-emergence, 21 DAT
[26] = HER 32 g a.i./ha post-emergence, 21 DAT
[27] = herbicide alone 8 g a.i./ha post-emergence, 21 DAT
[28] = herbicide alone 32 g a.i./ha post-emergence, 21 DAT
[29] = HER 100 g a.i./ha, mefenpyr-diethyl 50 g a.i./ha 1 day before
[30] = HER 200 g a.i./ha, mefenpyr-diethyl 50 g a.i./ha 1 day before
[31] = HER 25 g a.i./ha, mefenpyr-diethyl 50 g a.i./ha 1 day before, 21 DAT
[32] = HER 50 g a.i./ha, mefenpyr-diethyl 50 g a.i./ha 1 day before, 21 DAT

## CCOC(=O)C1C=CC(NC(=O)C2(C(F)(F)F)CC(c3ccccc3)=NO2)C1 (centres unmarked) [Example 1.9]
[1]; [7]
  HER effect + SAF: 20%
  Reduction [%]: 67%
  Reduction [Difference]: 40
[1]; [8]
  HER effect + SAF: 25%
  Reduction [%]: 64%
  Reduction [Difference]: 45
[1]; herbicide alone 100 g a.i./ha
  HER effect: 60%
[1]; herbicide alone 200 g a.i./ha
  HER effect: 70%
[2]; [9]
  HER effect + SAF: 20%
  Reduction [%]: 50%
  Reduction [Difference]: 20
[2]; herbicide alone 100 g a.i./ha, 10 DAT
  HER effect: 40%

## COC(=O)C1(C)CC(NC(=O)C2(C(C)(F)F)CC(c3cc(F)cc(F)c3)=NO2)CO1 (mixture of isomers) [Example 1.94]
[3]; [10]
  HER effect + SAF: 0%
  Reduction [%]: 100%
  Reduction [Difference]: 20
[3]; [11]
  HER effect + SAF: 0%
  Reduction [%]: 100%
  Reduction [Difference]: 85
[3]; [12]
  HER effect + SAF: 10%
  Reduction [%]: 88%
  Reduction [Difference]: 75
[3]; herbicide alone 1.5 g a.i./ha, 21 DAT
  HER effect: 20%
[3]; herbicide alone 6 g a.i./ha, 21 DAT
  HER effect: 85%
[3]; herbicide alone 24 g a.i./ha, 21 DAT
  HER effect: 85%
[4]; [13]
  HER effect + SAF: 0%
  Reduction [%]: 100%
  Reduction [Difference]: 30
[4]; [14]
  HER effect + SAF: 30%
  Reduction [%]: 67%
  Reduction [Difference]: 60
[4]; [15]
  HER effect + SAF: 70%
  Reduction [%]: 22%
  Reduction [Difference]: 20
[4]; herbicide alone 2 g a.i./ha, 10 DAT
  HER effect: 30%
[4]; [16]
  HER effect: 90%
[4]; [17]
  HER effect: 90%
[5]; 21 DAT, HER dose 1.5 g a.i./ha
  HER effect + SAF [%] (crop damage): 0%
  Reduction [%]: 100%
  Reduction [Difference]: 20
  HER effect [%] (crop damage, herbicide without safener): 20%
[5]; 21 DAT, HER dose 6 g a.i./ha
  HER effect + SAF [%] (crop damage): 10%
  Reduction [%]: 88%
  Reduction [Difference]: 75
  HER effect [%] (crop damage, herbicide without safener): 85%
[5]; 21 DAT, HER dose 24 g a.i./ha
  HER effect + SAF [%] (crop damage): 20%
  Reduction [%]: 76%
  Reduction [Difference]: 65
  HER effect [%] (crop damage, herbicide without safener): 85%
[6]; [18]
  HER effect + SAF: 0%
  Reduction [%]: 100%
  Reduction [Difference]: 30
[6]; [19]
  HER effect + SAF: 20%
  Reduction [%]: 78%
  Reduction [Difference]: 70
[6]; [20]
  HER effect + SAF: 30%
  Reduction [%]: 67%
  Reduction [Difference]: 60
[6]; herbicide alone 2 g a.i./ha post-emergence, 10 DAT
  HER effect: 30%
[6]; herbicide alone 8 g a.i./ha post-emergence, 10 DAT
  HER effect: 90%
[6]; herbicide alone 32 g a.i./ha post-emergence, 10 DAT
  HER effect: 90%

## C=CC1(C(=O)NC2COC(C(=O)OC)C2)CC(c2cc(C)cc(F)c2)=NO1 (mixture of isomers) [Example 1.71]
[3]; [14]
  HER effect + SAF: 0%
  Reduction [%]: 100%
  Reduction [Difference]: 50
[3]; [15]
  HER effect + SAF: 20%
  Reduction [%]: 76%
  Reduction [Difference]: 65
[3]; [16]
  HER effect: 50%
[3]; [17]
  HER effect: 85%
[4]; [21]
  HER effect + SAF: 20%
  Reduction [%]: 60%
  Reduction [Difference]: 30
[4]; [22]
  HER effect + SAF: 50%
  Reduction [%]: 29%
  Reduction [Difference]: 20
[4]; [23]
  HER effect: 50%
[4]; [24]
  HER effect: 70%
[5]; 10 DAT, HER dose 8 g a.i./ha
  HER effect + SAF [%] (crop damage): 0%
  Reduction [%]: 100%
  Reduction [Difference]: 50
  HER effect [%] (crop damage, herbicide without safener): 50%
[5]; 10 DAT, HER dose 32 g a.i./ha
  HER effect + SAF [%] (crop damage): 0%
  Reduction [%]: 100%
  Reduction [Difference]: 85
  HER effect [%] (crop damage, herbicide without safener): 85%
[6]; [25]
  HER effect + SAF: 30%
  Reduction [%]: 40%
  Reduction [Difference]: 20
[6]; [26]
  HER effect + SAF: 40%
  Reduction [%]: 43%
  Reduction [Difference]: 30
[6]; [27]
  HER effect: 50%
[6]; [28]
  HER effect: 70%

## COC(=O)C1C=CC(NC(=O)C2(C)CC(c3cccc(F)c3)=NO2)C1 (centres unmarked) [Example 1.20]
[3]; [14]
  HER effect + SAF: 0%
  Reduction [%]: 100%
  Reduction [Difference]: 20
[3]; [15]
  HER effect + SAF: 30%
  Reduction [%]: 40%
  Reduction [Difference]: 20
[3]; [16]
  HER effect: 20%
[3]; [17]
  HER effect: 50%
[4]; [21]
  HER effect + SAF: 0%
  Reduction [%]: 100%
  Reduction [Difference]: 30
[4]; [22]
  HER effect + SAF: 40%
  Reduction [%]: 50%
  Reduction [Difference]: 40
[4]; [23]
  HER effect: 30%
[4]; [24]
  HER effect: 80%
[5]; 10 DAT, HER dose 8 g a.i./ha
  HER effect + SAF [%] (crop damage): 0%
  Reduction [%]: 100%
  Reduction [Difference]: 20
  HER effect [%] (crop damage, herbicide without safener): 20%
[5]; 10 DAT, HER dose 32 g a.i./ha
  HER effect + SAF [%] (crop damage): 0%
  Reduction [%]: 100%
  Reduction [Difference]: 50
  HER effect [%] (crop damage, herbicide without safener): 50%
[6]; [25]
  HER effect + SAF: 10%
  Reduction [%]: 67%
  Reduction [Difference]: 20
[6]; [26]
  HER effect + SAF: 20%
  Reduction [%]: 75%
  Reduction [Difference]: 60
[6]; [27]
  HER effect: 30%
[6]; [28]
  HER effect: 80%

## CC1(C(=O)NC2C=CC(C(=O)N3CCCCO3)C2)CC(c2cc(F)cc(F)c2)=NO1 (mixture of isomers) [Example 1.46]
[1]; [29]
  HER effect + SAF: 5%
  Reduction [%]: 92%
  Reduction [Difference]: 55
[1]; [30]
  HER effect + SAF: 5%
  Reduction [%]: 94%
  Reduction [Difference]: 75
[1]; herbicide alone 100 g a.i./ha
  HER effect: 60%
[1]; herbicide alone 200 g a.i./ha
  HER effect: 80%
[2]; [31]
  HER effect + SAF: 10%
  Reduction [%]: 78%
  Reduction [Difference]: 35
[2]; [32]
  HER effect + SAF: 20%
  Reduction [%]: 69%
  Reduction [Difference]: 45
[2]; herbicide alone 25 g a.i./ha, 21 DAT
  HER effect: 45%
[2]; herbicide alone 50 g a.i./ha, 21 DAT
  HER effect: 65%
